Article PMC11609934, “Exploration and characterization of the antimalarial activity of cyclopropyl carboxamides that target the mitochondrial protein, cytochrome b” (European Journal of Medicinal Chemistry, 2024)
Converted amounts (≈) assume the structure as drawn.

Columns and labels:
[1] = Aqueous solubility (kinetic in PBS, pH 7.4); format: physicochemical; details: phosphate buffered saline
Procedure: Solubility. The solubility assay was performed using a miniaturized shake flask method. A solution of phosphate buffered saline (PBS) and the test compound (200 μM) was incubated at 25 °C with constant shaking (600 rpm) for 2 h. The samples were filtered using a multiscreen solubility filter plate. The filtrate was half diluted in acetonitrile. A five-point linearity curve was prepared in PBS:acetonitrile (1:1, v/v) at 200, 150, 75, 25 and 2.5 μM. Blank, linearity and test samples (n = 2) were transferred to a UV readable plate and the plate was scanned for absorbance. Best fit calibration curves were constructed using the calibration standards and used to determine the test sample solubility. The experiment was carried out in duplicate. Diethylstilbestrol, haloperidol, and diclofenac sodium were used as reference standards.

mitochondrial ETC = experiment: P. falciparum oxygen consumption rate (OCR) assay (Seahorse XFe96); format: cell-based, Plasmodium falciparum; details: compounds 5 μM
Procedure: To provide further evidence to support the cyclopropyl carboxamide series targeting cyt b, an oxygen consumption rate (OCR) assay was performed using a Seahorse XFe96 Flux Analyzer. The primary role of the mitochondria ETC is to produce ATP oxidative phosphorylation, and thus the oxygen consumption directly quantifies mitochondrial ETC activity. In this assay, malate, which is a substrate of malate quinone dehydrogenase (MQD), was added to provide a base line of oxygen consumption at approximately 50 pmol/min (Fig. 4). […] Finally, NaN3 was added to inhibit complex IV to bring the OCR back to basal levels.
Fig. 4 P. falciparum oxygen consumption rate (OCR) assay. Data represent the means and SDs of 3 technical replicates. Time points and reagent injections were as follows, 1. First 5 timepoints measured the basal level of malate-dependent OCR; 2. Compounds (5 μM) were injected independently (indicated by arrow), and OCR measured for 8-timepoints; 3. TMPD (a cytochrome c electron donor) was injected, and OCR measured for 5 time points; 4. NaN3 (a complex IV inhibitor) was then added, and OCR measured for 5 time points.
ETC Biosensor Assay. This assay was performed as previously described. Briefly, 3 × 10^8 trophozoite infected RBCs were purified using the SuperMACS II separator (Miltenyi Biotec, Germany). The trophozoite-stage parasites were released from erythrocytes by treating them with 0.05 % (w/v) pre-warmed saponin in phosphate-buffered saline (PBS) at 37 °C for 3 min. The cells were washed with pre-warmed PBS, three times. […] The cells were measured for oxygen consumption rate (OCR) using Seahorse XFe96 flux analyzer (Agilent). The OCR was assessed for five cycles of 20 s mixing, 1 min waiting, 2.5 min measuring to establish baseline OCR before any substrate injections, for eight cycles of 20 s mixing, 1 min waiting followed by 2.5 min measuring after inhibitor injection from port A and for five cycles of 20 s mixing 1 min waiting, 2.5 min measuring after TMPD, and NaN3, injections.

[2] = Human HepG2 growth inhibition assay (Cell TitreGlo, 48 h); format: cell-based; details: human, HepG2 cells, HepG2 cell growth inhibition over 48 h
Procedure, shortened: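 HepG2 cells (1000/well, DMEM + 10% FCS) exposed 48 h at 37 °C, 5% CO2 to compound from 50 μM top concentration in 1:2 dilutions, 0.5% DMSO final. Viability read by Cell Titer Glo, normalised to DMSO and 10 μM bortezomib; EC50 by four-parameter variable-slope fit.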

Row | Structure (SMILES) | solubility at 2 h [1] [µM] | effect on malate-dependent oxygen consumption rate (OCR) (mitochondrial ETC) | CC50 at 48 h [2] [µM]
1 | O=C(NC1CC1)c1ccc(CN(Cc2ccc(Cl)cc2Cl)C2CC2)cc1 [W499 (2)] | 7.4 (≈ 2.88 µg/mL) | reduced the OCR to the same level as ATQ | > 40
2 | CCCN(Cc1ccc(C(=O)NC2CC2)cc1)Cc1ccc(C(F)(F)F)cc1 [WJM280 (108), N-Cyclopropyl-4-((propyl(4-(trifluoromethyl)benzyl)amino)methyl)benzamide] | 15 (≈ 5.86 µg/mL) | – | 15
